Literature values in patent US20110104137A1, “ADJUNCTS AND COMPLEXES FOR IMPROVING HMG-CoA REDUCTASE INHIBITOR (STATIN) AND SELECTIVE PHOSPHODIESTERASE 5 INHIBITOR THERAPY” (ChronoRX LLC, an Alaska Limited Liability Company, priority 2009, published 2011).

Key:
[1] = oral L-CAR; placebo group 26.0%
[2] = tested on: Lp(a); settings: patients with otherwise elevated levels
[3] = tested on: NF-kappaB; settings: in vitro and ex-vivo
[4] = 12 months, IVUS
[5] = atorvastatin 80 mg versus pravastatin 40 mg, after ACS
[6] = tested on: PGI2; settings: administered therapeutic dose, humans
[7] = in vivo
[8] = rosuvastatin 40 mg/d
[9] = tested on: ADMA; settings: in vivo
[10] = no hyperlipidemia, elevated high-sensitivity CRP
[11] = biological target: T1, CETP (Homo sapiens, UniProt P11597)
T1 construct: Circulating CETP mediates the transfer of cholesteryl esters from HDL to LDL; host or cells: patients (endogenous plasma CETP, in vivo)
T1 sequence (P11597 18-493): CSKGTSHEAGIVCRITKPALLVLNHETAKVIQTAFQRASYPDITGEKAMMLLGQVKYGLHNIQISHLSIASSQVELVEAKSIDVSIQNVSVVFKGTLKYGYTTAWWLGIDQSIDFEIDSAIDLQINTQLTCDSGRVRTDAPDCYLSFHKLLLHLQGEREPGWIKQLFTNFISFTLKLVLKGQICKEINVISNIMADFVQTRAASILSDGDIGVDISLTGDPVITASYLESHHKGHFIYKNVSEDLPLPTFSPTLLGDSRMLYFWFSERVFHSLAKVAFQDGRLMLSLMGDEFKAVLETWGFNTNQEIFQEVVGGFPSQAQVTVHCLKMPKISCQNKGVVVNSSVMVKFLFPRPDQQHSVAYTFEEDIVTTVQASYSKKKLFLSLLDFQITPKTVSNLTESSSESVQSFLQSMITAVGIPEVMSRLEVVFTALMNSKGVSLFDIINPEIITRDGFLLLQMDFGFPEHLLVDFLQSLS

[12] = monotherapy and in combination with a statin

In the case of CC(=O)O[C@H](CC(=O)[O-])C[N+](C)(C)C [L-CAR, Acetyl-L-carnitine], the “total cardiac events, including cardiac death and nonfatal infarction” value [1] is listed as 15.6% and the “plasma Lp(a)” value [2] is listed as “reduce plasma Lp(a)”.
In the case of O=C(O)CCCCC1CCSS1 (stereo not shown) [LA, 1,2-dithiolane-3-pentanoic acid], the NF-kappaB activation [3] is given as “inhibits NF-kappaB activation”.
For CC(C)c1c(C(=O)Nc2ccccc2)c(-c2ccccc2)c(-c2ccc(F)cc2)n1CC[C@@H](O)C[C@@H](O)CC(=O)O [atorvastatin], the “progression of mean plaque volume or thickness” value ([4]; 131 patients, placebo 9.6) is given as 1.2 mm^3, the “hyperechogenicity of the plaque” value ([4]; compared to placebo) is given as “increased the hyperechogenicity of the plaque” and the “rate of hospitalization for HF” value [5] is given as “significantly reduced the rate of hospitalization for HF”. The PGI2 signaling [6] was “does not significantly decrease PGI2 signaling” and the interaction with warfarin [7] was “potentiate warfarin”.
In the case of CC[C@H](C)C(=O)O[C@H]1C[C@@H](C)C=C2C=C[C@H](C)[C@H](CC[C@@H]3C[C@@H](O)CC(=O)O3)[C@H]21 [lovastatin], the interaction with warfarin [7] is listed as “potentiate warfarin”.
In the case of CC(C)c1nc(N(C)S(C)(=O)=O)nc(-c2ccc(F)cc2)c1/C=C/[C@@H](O)C[C@@H](O)CC(=O)O [rosuvastatin], the “average LDL achieved” value ([8]; 349 patients) is given as 60.8 mg/dL, the “increase in HDL” value ([8]; 349 patients) is given as 14.7% and the regression of atherosclerosis ([8]; intravascular ultrasound) is given as “significant regression of atherosclerosis”. The “effect on plasma ADMA” value [9] was “decrease in plasma ADMA”, the “incidence of major cardiovascular events” value [10] was “significantly reduced the incidence of major cardiovascular events” and the interaction with warfarin [7] was “potentiate warfarin”.
For CCOC(=O)N1c2ccc(C(F)(F)F)cc2[C@@H](N(Cc2cc(C(F)(F)F)cc(C(F)(F)F)c2)C(=O)OC)C[C@H]1CC [torcetrapib], the mortality ([11]; mean follow-up of 550 days, cardiovascular and noncardiovascular causes) is given as “significant increase in mortality”, the HDL-CHOL levels [11, 12] is given as “markedly increased HDL-CHOL levels” and the LDL-CHOL [11, 12] is given as “reduced LDL-CHOL”. For the same compound, the “mean particle size of HDL and LDL” value [11, 12] was “increased the mean particle size of both HDL and of LDL”.
